Here are results for three compounds from patent US11052043B2, “Sustained-release injectable formulation” (YISSUM RESEARCH DEVELOPMENT COMPANY OF THE HEBREW …, priority 2011, dated 2021).

In brackets after ≈: the same amount, converted by molar mass.

Data set [1] can be described thus: Minimum inhibitory concentration (MIC) of amoxicillin. Type of data set: cell-based. The following applies: in vitro MIC multiplied by a factor of 4.
For data set [2] the following is noted: cited from earlier work.
For data set [3] the following is noted: cited from earlier work. This is another data set of the same source.

As to `CC1(C)S[C@@H]2[C@H](NC(=O)[C@H](N)c3ccc(O)cc3)C(=O)N2[C@H]1C(=O)O` [amoxicillin], the “in vivo minimum inhibitory concentration (MIC) as set” value in data set [1] came out at 0.4 µg/mL. The “MIC value determined in vitro” value in data set [2] was 0.1 µg/mL (≈ 0.274 µM).
Regarding `C=CC1=C(C(=O)O)N2C(=O)[C@@H](NC(=O)/C(=N\O)c3csc(N)n3)[C@H]2SC1` [cefdinir], the solubility of cefdinir in data set [3] (30° C.) is listed as 0.43 % (w/v).
Turning to `CCN1CCN(c2cc3c(cc2F)c(=O)c(C(=O)O)cn3C2CC2)CC1` [enrofloxacin], the solubility of enrofloxacin in data set [3] (25° C.) is 0.25 % (w/v).
